Measured values taken from patent US20260337189A1, “Cryptolepine Salt Derivative, Preparation Method, and Use Thereof” (ZHEJIANG XINNONG CHEMICAL CO., LTD., priority 2023, published 2026).

What was measured:
rice sheath blight = test: Test of resistance to rice sheath blight (bactericidal activity test); type: in vivo; conditions: for Resistance to rice sheath blight: 400 mg/L, rice seedlings, sprayed 24 h before inoculation, 6 days after inoculation, visual inspection; for bactericidal activity against rice sheath blight: live pot test, Table 5, 400 mg/L
Procedure: Bactericidal activity test, the determination procedure is as follows:
Test of resistance to rice sheath blight: Select uniformly growing rice seedlings and spray them on the leaves at the set concentration, set a water spraying group as blank control, every treatment was repeated twice. After 24 h, the rice seedlings were inoculated with rice sheath blight strains and placed at room temperature (25±4° C.) for normal management after inoculation. The prevention and control effect was investigated by visual inspection 6 days after inoculation.

[1] = tested on: tobacco Mosaic virus (TMV); test: Anti-tobacco Mosaic virus (TMV) activity, overall comparison of Test Example 1; type: in vivo; conditions: 500 μg/mL; Table 4
Procedure: Determination of anti-tobacco Mosaic virus (TMV) activity by the following procedure:
After weighing, cryptolepine salt derivative, ningnanmycin and the original drug of ribavirin were dissolved in DMF to obtain 1×10^5 μg/mL mother solution, and then diluted to the required concentration with 1%. Tween 80 aqueous solution.
Select the 3-5 leaf stage of tobacco Xanthi nc with uniform growth, spray the whole plant, repeat each treatment 3 times, and set 1%. Tween80 aqueous solution as control. 24 h later, the leaf surface was coated with emery (500 mesh), the disease venom was dipped with a brush, and the whole leaf surface was gently rubbed twice along the direction of the branch pulse by using the brush, the leaf was supported by palm of hand, the virus concentration was 10 μg/mL, and the leaf was washed by water after inoculation. After 3 days, the number of disease spots was recorded and the prevention and control effect was calculated.
Select the 3-5 leaf stage of tobacco Xanthi nc with uniform growth, use a brush to vaccinate the virus in the whole leaf, the virus concentration is 10 μg/mL, and the leaf was washed with running water after inoculation. After the leaves were dried, the whole plant was sprayed with test sample, repeated 3 times every treatment, and 1%. Tween 80 aqueous solution was set as control. After 3 days, the number of disease spots was recorded and the prevention and control effect was calculated.
Select the 3-5 leaf stage of tobacco Xanthi nc with uniform growth, mix the test sample agent with the same volume of virus juice to passivate for 30 min, friction inoculation, virus concentration 20 μg/mL, the leaf was washed with running water after inoculation, repeat 3 times, set 1%. Tween 80 aqueous solution as control. 3 days later, the number of disease spots was calculated.
Relative inhibition rate (%)=[(number of dead spots of control group-number of dead spots of test sample group)/number of dead spots of control group]×100%.
Anti-tobacco Mosaic virus passivation activity test of all compounds was at a treatment dose of 500 μg/mL. The positive control was the commercial anti-plant virus agent viriazole.

Row | SMILES | Resistance to rice sheath blight (rice sheath blight) [%] | TMV activity compared with ribavirin [1] | bactericidal activity against rice sheath blight (rice sheath blight) | anti-TMV activity compared with commercial Ningnanmycin [1]
1 | CN1CCCC(CNc2c3ccccc3[n+](C)c3c2[nH]c2ccccc23)C1 (stereo not shown) [Example 46] | 30 ± 0 | better TMV activity than the ribavirin |  | 
2 | CCCNc1c2ccccc2[n+](C)c2c1[nH]c1ccccc12 [Example 23] | 30 ± 0 |  |  | 
3 | C[n+]1c2ccccc2cc2c1c1ccccc1n2S(=O)(=O)c1ccccc1 [Example 22] | 45 ± 5 |  | more than 50% | 
4 | CC(C)CCNc1c2ccccc2[n+](C)c2c1[nH]c1ccccc12 [Example 26] | 35 ± 5 | better TMV activity than the ribavirin |  | 
5 | C[n+]1c2ccccc2c(NCC(C)(C)N)c2[nH]c3ccccc3c21.[I-] [Example 36] | 35 ± 5 |  |  | 
6 | Cc1ccc(S(=O)(=O)n2c3ccccc3c3c2cc2ccccc2[n+]3Cc2ccccc2)cc1 [Example 21] | 40 ± 0 | better TMV activity than the ribavirin |  | 
7 | C[n+]1c2ccccc2c(NCC2CC2)c2[nH]c3ccccc3c21 [Example 28] | 60 ± 0 |  | more than 50% | 
8 | Cc1ccc(S(=O)(=O)n2c3ccccc3c3c2cc2cc(C)ccc2[n+]3C)cc1.[Cl-] [Example 9] | 70 ± 0 |  | more than 50% | 
9 | Cc1ccc(S(=O)(=O)n2c3ccc(Br)cc3c3c2cc2ccccc2[n+]3C)cc1.[Cl-] [Example 6] | 40 ± 0 | better TMV activity than the ribavirin |  | comparable to that of commercial Ningnanmycin
10 | Cc1ccc(S(=O)(=O)n2c3ccccc3c3c2cc2ccccc2[n+]3C)cc1.[Cl-] [Example 1] | 95 ± 5 |  | more than 95% | 
11 | CCNCCNc1c2ccccc2[n+](C)c2c1[nH]c1ccccc12.[I-] [Example 37] | 40 ± 0 |  |  | 
12 | C[n+]1c2ccccc2c(NCCN)c2[nH]c3ccccc3c21.[I-] [Example 32] | 30 ± 0 |  |  | 
13 | C[n+]1c2ccccc2c(N2CCN(CCN)CC2)c2[nH]c3ccc(Cl)cc3c21.[I-] [Reference Example 2, 11-(4′-(2-aminoethyl)-piperazinyl) substituted cryptolepine iodide salt, reference compound] | 0 |  |  | 
14 | Cc1ccc(S(=O)(=O)n2c3ccccc3c3c2cc2ccc(Cl)cc2[n+]3C)cc1 [Example 17] | 40 ± 0 |  |  | 
15 | C[n+]1c2ccccc2c(NCCCCN)c2[nH]c3ccccc3c21.[I-] [Example 34] | 20 ± 0 | better TMV activity than the ribavirin |  | comparable to that of commercial Ningnanmycin
16 | CN1CCC(Nc2c3ccccc3[n+](C)c3c2[nH]c2ccccc23)CC1.[I-] [Example 44] | 55 ± 5 |  | more than 50% | 
17 | Cc1ccc(S(=O)(=O)n2c3ccc(C#N)cc3c3c2cc2ccccc2[n+]3C)cc1.[Cl-] [Example 8] | 30 ± 0 |  |  | 
18 | CC(N)CNc1c2ccccc2[n+](C)c2c1[nH]c1ccccc12.[I-] (stereo not shown) [Example 35] | 25 ± 5 | better TMV activity than the ribavirin |  | 
19 | Cc1ccc(S(=O)(=O)n2c3ccc(Cl)cc3c3c2cc2ccccc2[n+]3C)cc1.[Cl-] [Example 5] | 55 ± 5 | better TMV activity than the ribavirin | more than 50% | comparable to that of commercial Ningnanmycin
20 | COc1ccc2c(c1)cc1c(c3ccccc3n1S(=O)(=O)c1ccc(C)cc1)[n+]2C.[Cl-] [Example 10] | 30 ± 0 |  |  | 

Row | SMILES | Resistance to rice sheath blight (rice sheath blight) [%] | TMV activity compared with ribavirin [1] | bactericidal activity against rice sheath blight (rice sheath blight) | anti-TMV activity compared with commercial Ningnanmycin [1]
21 | Cc1ccc(S(=O)(=O)n2c3ccccc3c3c2cc2ccccc2[n+]3CC2CCCCC2)cc1 [Example 19] | 20 ± 0 | better TMV activity than the ribavirin |  | 
22 | Cc1ccc(S(=O)(=O)n2c3ccccc3c3c2cc2cc(C(F)(F)F)ccc2[n+]3C)cc1.[Cl-] [Example 14] | 60 ± 0 |  | more than 50% | 
23 | Cc1ccc(S(=O)(=O)n2c3ccc(C)cc3c3c2cc2ccccc2[n+]3C)cc1.[Cl-] [Example 2] | 40 ± 0 |  |  | 
24 | C[n+]1c2ccccc2cc2[nH]c3ccc(Br)cc3c21 [Reference Example 1, 5-methyl-7-bromo 5H-indolo[3,2-b]quinoline, reference compound] | 0 |  |  | 
25 | C[n+]1c2ccccc2c(NCC2CCCCC2)c2[nH]c3ccccc3c21 [Example 30] | 35 ± 5 |  |  | 
26 | C[n+]1c2ccccc2c(NCC2CCCNC2)c2[nH]c3ccccc3c21.[I-] (stereo not shown) [Example 43] | 30 ± 0 |  |  | 
27 | Cc1ccc(S(=O)(=O)n2c3ccccc3c3c2cc2cc(Cl)ccc2[n+]3C)cc1.[Cl-] [Example 12] | 40 ± 0 |  |  | 
28 | Cc1ccc(S(=O)(=O)n2c3ccccc3c3c2cc2ccccc2[n+]3CC2CC2)cc1 [Example 18] | 45 ± 5 | better TMV activity than the ribavirin | more than 50% | 
29 | CN1CCC(CNc2c3ccccc3[n+](C)c3c2[nH]c2ccccc23)CC1.[I-] [Example 45] | 30 ± 0 |  |  | 
30 | CCCCC(CC)CNc1c2ccccc2[n+](C)c2c1[nH]c1ccccc12 (stereo not shown) [Example 27] | 30 ± 0 | better TMV activity than the ribavirin |  | comparable to that of commercial Ningnanmycin
31 | Cc1ccc(S(=O)(=O)n2c3ccccc3c3c2cc2cc(Br)ccc2[n+]3C)cc1.[Cl-] [Example 13] | 35 ± 5 | better TMV activity than the ribavirin |  | comparable to that of commercial Ningnanmycin
32 | CNCCCNc1c2ccccc2[n+](C)c2c1[nH]c1ccccc12.[I-] [Example 38] | 30 ± 0 |  |  | 
33 | COC(=O)c1ccc2c(c1)cc1c(c3ccccc3n1S(=O)(=O)c1ccc(C)cc1)[n+]2C.[Cl-] [Example 15] | 40 ± 0 |  |  | 
34 | Cc1ccc(S(=O)(=O)n2c3ccccc3c3c2cc2ccc(C)cc2[n+]3C)cc1 [Example 16] | 95 ± 5 |  | more than 95% | 
35 | CN(C)CC(C)(C)CNc1c2ccccc2[n+](C)c2c1[nH]c1ccccc12.[I-] [Example 39] | 25 ± 5 |  |  | 
36 | COc1ccc2c(c1)c1c(cc3ccccc3[n+]1C)n2S(=O)(=O)c1ccc(C)cc1.[Cl-] [Example 3] | 35 ± 5 |  |  | 
37 | C[n+]1c2ccccc2c(NCCCC2CCCCC2)c2[nH]c3ccccc3c21.[I-] [Example 31] | 25 ± 5 |  |  | 
38 | Cc1ccc(S(=O)(=O)n2c3ccccc3c3c2cc2cc(F)ccc2[n+]3C)cc1.[Cl-] [Example 11] | 40 ± 0 |  |  | 
39 | Cc1nc(C(F)(F)F)c(C(=O)Nc2c(Br)cc(OC(F)(F)F)cc2Br)s1 [Thifluzamide, thifluzamide, reference compound] | 100 |  |  | 
